Experimental data reported in patent publication US10479780B2, “Aminopyrazole derivatives” (Chugai Seiyaku Kabushiki Kaisha, priority 2015, dated 2019).

Assays:
Assay type in all cases: biochemical
[1] = molecular target: T1, human Yes1 enzyme (Homo sapiens, UniProt P07947); experiment: Yes1 enzyme inhibitory activity (time-resolved fluorometry, biotinylated peptide phosphorylation); settings: biotinylated peptide phosphorylation, read-out: YES_IC50
T1 construct: made in house
Summary of the method: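 Inhibition was expressed against a compound-free control to give IC50, using TR-FRET read-out (Eu-cryptate anti-pTyr antibody, streptavidin-XL665).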

[2] = molecular target: T2, human Src enzyme (Homo sapiens, UniProt P12931); experiment: Src enzyme inhibitory activity (time-resolved fluorometry, biotinylated peptide phosphorylation); settings: biotinylated peptide phosphorylation, read-out: SRC_IC50
T2 construct: purchased Carna Biosciences, Inc. 08-173
T2 sequence (P12931 whole entry): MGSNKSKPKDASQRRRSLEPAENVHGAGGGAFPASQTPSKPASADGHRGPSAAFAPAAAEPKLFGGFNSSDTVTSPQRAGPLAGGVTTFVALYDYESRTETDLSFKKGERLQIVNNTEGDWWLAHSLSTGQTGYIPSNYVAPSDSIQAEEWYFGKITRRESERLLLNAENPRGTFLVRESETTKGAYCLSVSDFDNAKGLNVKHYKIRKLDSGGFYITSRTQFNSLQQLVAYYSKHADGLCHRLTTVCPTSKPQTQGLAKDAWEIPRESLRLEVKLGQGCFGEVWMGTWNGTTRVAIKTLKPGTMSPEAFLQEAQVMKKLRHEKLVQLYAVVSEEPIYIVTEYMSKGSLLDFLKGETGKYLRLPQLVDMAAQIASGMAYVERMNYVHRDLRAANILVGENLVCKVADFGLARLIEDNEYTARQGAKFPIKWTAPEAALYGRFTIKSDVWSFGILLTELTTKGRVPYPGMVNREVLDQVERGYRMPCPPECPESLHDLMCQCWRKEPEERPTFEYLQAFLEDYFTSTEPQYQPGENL
Summary of the method: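 Compounds were tested for blocking tyrosine phosphorylation of a biotinylated peptide substrate by recombinant human Src. Phosphorylated product was quantified by time-resolved fluorometry using europium cryptate and XL665 conjugates, and IC50 was calculated against the compound-free control.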

[3] = molecular target: T3, human Lck enzyme (Homo sapiens, UniProt P06239); experiment: Lck enzyme inhibitory activity (time-resolved fluorometry, biotinylated peptide phosphorylation); settings: biotinylated peptide phosphorylation, read-out: LCK_IC50
T3 construct: purchased Carna Biosciences, Inc. 08-170
T3 sequence (P06239 whole entry): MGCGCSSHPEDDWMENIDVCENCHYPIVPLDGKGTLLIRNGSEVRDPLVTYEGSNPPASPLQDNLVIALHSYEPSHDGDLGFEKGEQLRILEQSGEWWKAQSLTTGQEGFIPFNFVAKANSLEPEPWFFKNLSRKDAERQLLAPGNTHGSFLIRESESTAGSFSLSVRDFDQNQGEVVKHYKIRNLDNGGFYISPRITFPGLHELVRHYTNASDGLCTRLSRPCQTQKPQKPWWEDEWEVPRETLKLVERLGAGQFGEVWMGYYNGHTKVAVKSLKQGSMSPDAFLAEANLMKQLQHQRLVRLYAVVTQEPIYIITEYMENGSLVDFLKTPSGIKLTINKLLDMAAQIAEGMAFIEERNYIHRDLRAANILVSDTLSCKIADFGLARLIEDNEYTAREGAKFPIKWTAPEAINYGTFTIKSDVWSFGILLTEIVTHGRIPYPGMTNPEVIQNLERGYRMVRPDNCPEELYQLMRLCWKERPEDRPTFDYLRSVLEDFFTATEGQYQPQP
Summary of the method: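 Readout pairs a europium cryptate-labelled anti-phosphotyrosine antibody with XL665-streptavidin, measured by time-resolved fluorescence. IC50 derived from percent inhibition against untreated controls.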

T1 sequence (P07947 whole entry): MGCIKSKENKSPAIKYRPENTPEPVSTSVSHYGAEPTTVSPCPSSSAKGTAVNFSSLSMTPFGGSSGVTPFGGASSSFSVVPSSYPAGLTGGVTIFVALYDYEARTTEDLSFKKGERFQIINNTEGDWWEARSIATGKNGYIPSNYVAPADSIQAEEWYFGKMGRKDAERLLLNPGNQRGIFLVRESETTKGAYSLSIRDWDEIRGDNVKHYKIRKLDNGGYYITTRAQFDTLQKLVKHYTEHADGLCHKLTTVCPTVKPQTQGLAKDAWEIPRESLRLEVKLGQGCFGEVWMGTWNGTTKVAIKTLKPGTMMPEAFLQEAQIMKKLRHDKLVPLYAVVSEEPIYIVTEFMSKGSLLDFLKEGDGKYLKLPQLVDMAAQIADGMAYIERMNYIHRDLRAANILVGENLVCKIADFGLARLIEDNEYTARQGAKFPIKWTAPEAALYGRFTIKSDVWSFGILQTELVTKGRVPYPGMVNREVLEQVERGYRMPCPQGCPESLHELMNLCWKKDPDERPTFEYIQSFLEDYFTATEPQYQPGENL

Row | Compound | IC50 [1] [nM] | IC50 [2] [nM] | IC50 [3] [nM]
1 | Cc1cc(Oc2ccccc2F)cc(F)c1-n1ncc(C(=O)c2cc3cc(OCC(F)F)c(NC4COC4)cc3[nH]2)c1N [Example 4-23-019, [5-amino-1-[2-fluoro-4-(2-fluorophenoxy)-6-methylphenyl]pyrazol-4-yl]-[5-(2,2-difluoroethoxy)-6-(oxetan-3-ylamino)-1H-indol-2-yl]methanone] | 1.8 | 28 | 6.4
2 | Cc1cc(Oc2ccccc2F)ncc1-n1ncc(C(=O)c2cc3cc(OCC(F)F)c(NC4COC4)cc3[nH]2)c1N [Example 4-23-020, [5-amino-1-[6-(2-fluorophenoxy)-4-methylpyridin-3-yl]pyrazol-4-yl]-[5-(2,2-difluoroethoxy)-6-(oxetan-3-ylamino)-1H-indol-2-yl]methanone] | 1.4 | 30 | 3.8
3 | Cc1cc(Oc2c(F)cccc2F)ncc1-n1ncc(C(=O)c2cc3cc(OCC(F)F)c(NC4CCN(S(C)(=O)=O)CC4)cc3[nH]2)c1N [Example 4-23-021, [5-amino-1-[6-(2,6-difluorophenoxy)-4-methylpyridin-3-yl]pyrazol-4-yl]-[5-(2,2-difluoroethoxy)-6-[(1-methylsulfonylpiperidin-4-yl)amino]-1H-indol-2-yl]methanone] | 3.6 | 21 | 11
4 | Cc1cc(Oc2c(F)cccc2F)ncc1-n1ncc(C(=O)c2cc3cc(OCC(F)F)c(NC4CN(S(C)(=O)=O)C4)cc3[nH]2)c1N [Example 4-23-022, {5-amino-1-[6-(2,6-difluorophenoxy)-4-methylpyridin-3-yl]pyrazol-4-yl}-[5-(2,2-difluoroethoxy)-6-[(1-methylsulfonylazetidin-3-yl)amino]-1H-indol-2-yl]methanone] | 1.3 | 24 | 8
5 | Cc1cc(Oc2ccccc2F)ccc1-n1ncc(C(=O)c2cc3cc(OC(F)F)c(NC4CN(S(C)(=O)=O)C4)cc3[nH]2)c1N [Example 4-23-023, [5-amino-1-[4-(2-fluorophenoxy)-2-methylphenyl]pyrazol-4-yl]-[5-(difluoromethoxy)-6-[(1-methylsulfonylazetidin-3-yl)amino]-1H-indol-2-yl]methanone] | 0.45 | 17 | 5.8
6 | Cc1cc(Oc2ccccc2F)cc(F)c1-n1ncc(C(=O)c2cc3cc(OC(F)F)c(NC4CN(S(C)(=O)=O)C4)cc3[nH]2)c1N [Example 4-23-024, [5-amino-1-[2-fluoro-4-(2-fluorophenoxy)-6-methylphenyl]pyrazol-4-yl]-[5-(difluoromethoxy)-6-[(1-methylsulfonylazetidin-3-yl)amino]-1H-indol-2-yl]methanone] | 7.2 | 53 | 13
7 | Cc1cc(Oc2ccccc2F)ncc1-n1ncc(C(=O)c2cc3cc(OC(F)F)c(NC4CN(S(C)(=O)=O)C4)cc3[nH]2)c1N [Example 4-23-025, [5-amino-1-[6-(2-fluorophenoxy)-4-methylpyridin-3-yl]pyrazol-4-yl]-[5-(difluoromethoxy)-6-[(1-methylsulfonylazetidin-3-yl)amino]-1H-indol-2-yl]methanone] | 1.8 | 30 | 5.6
8 | Cc1cc(Oc2ccccc2F)ncc1-n1ncc(C(=O)c2cc3cc(OC(F)F)c(NC4CCN(S(C)(=O)=O)CC4)cc3[nH]2)c1N [Example 4-23-026, [5-amino-1-[6-(2-fluorophenoxy)-4-methylpyridin-3-yl]pyrazol-4-yl]-[5-(difluoromethoxy)-6-[(1-methylsulfonylpiperidin-4-yl)amino]-1H-indol-2-yl]methanone] | 4.5 | 50 | 19
9 | Cc1cc(Oc2ccccc2F)cc(F)c1-n1ncc(C(=O)c2cc3cc(OCC(F)F)c(NC4CN(S(C)(=O)=O)C4)cc3[nH]2)c1N [Example 4-23-027, [5-amino-1-[2-fluoro-4-(2-fluorophenoxy)-6-methylphenyl]pyrazol-4-yl]-[5-(2,2-difluoroethoxy)-6-[(1-methylsulfonylazetidin-3-yl)amino]-1H-indol-2-yl]methanone] | 1.9 | 16 | 7.6
10 | Cc1cc(Oc2ccccc2F)cc(F)c1-n1ncc(C(=O)c2cc3cc(OCC(F)F)c(NC4CCN(S(C)(=O)=O)CC4)cc3[nH]2)c1N [Example 4-23-028, [5-amino-1-[2-fluoro-4-(2-fluorophenoxy)-6-methylphenyl]pyrazol-4-yl]-[5-(2,2-difluoroethoxy)-6-[(1-methylsulfonylpiperidin-4-yl)amino]-1H-indol-2-yl]methanone] | 20 | 70 | 41
11 | Cc1cc(Oc2c(F)cccc2F)ncc1-n1ncc(C(=O)c2cc3cc(OCC(F)F)c(-n4c(C)cc(=O)[nH]c4=O)cc3[nH]2)c1N [Example 4-23-029, 1-{2-{5-amino-1-[6-(2,6-difluorophenoxy)-4-methylpyridin-3-yl]pyrazole-4-carbonyl}-5-(2,2-difluoroethoxy)-1H-indol-6-yl}-6-methylpyrimidine-2,4-dione] | 4.7 | 34 | 6.1
12 | Cc1cc(Oc2ccccc2F)ccc1-n1ncc(C(=O)c2cc3cc(OCC(F)F)c(-n4c(C)cc(=O)[nH]c4=O)cc3[nH]2)c1N [Example 4-23-030, 1-[2-[5-amino-1-[4-(2-fluorophenoxy)-2-methylphenyl]pyrazole-4-carbonyl]-5-(2,2-difluoroethoxy)-1H-indol-6-yl]-6-methylpyrimidine-2,4-dione] | 1.4 | 6.4 | 3.8
13 | Cc1cc(Oc2ccccc2F)ccc1-n1ncc(C(=O)c2cc3cc(OC(F)F)c(-n4c(C)cc(=O)[nH]c4=O)cc3[nH]2)c1N [Example 4-23-031, 1-[2-[5-amino-1-[4-(2-fluorophenoxy)-2-methylphenyl]pyrazole-4-carbonyl]-5-(difluoromethoxy)-1H-indol-6-yl]-6-methylpyrimidine-2,4-dione] | 1.5 | 14 | 5.2
14 | Cc1cc(Oc2c(F)cccc2F)ncc1-n1ncc(C(=O)c2cc3cc(OCC(F)F)c(N4C(=O)NC(C)(C)C4=O)cc3[nH]2)c1N [Example 4-23-032, 3-{2-{5-amino-1-[6-(2,6-difluorophenoxy)-4-methylpyridin-3-yl]pyrazole-4-carbonyl}-5-(2,2-difluoroethoxy)-1H-indol-6-yl}-5,5-dimethylimidazolidine-2,4-dione] | 0.58 | 17 | 2.5
15 | Cc1cc(Oc2ccccc2F)ccc1-n1ncc(C(=O)c2cc3cc(OCC(F)F)c(N4C(=O)NC(C)(C)C4=O)cc3[nH]2)c1N [Example 4-23-033, 3-[2-[5-amino-1-[4-(2-fluorophenoxy)-2-methylphenyl]pyrazole-4-carbonyl]-5-(2,2-difluoroethoxy)-1H-indol-6-yl]-5,5-dimethylimidazolidine-2,4-dione] | 0.5 | 6.1 | 2.1
16 | Cc1cc(Oc2c(F)cccc2F)ncc1-n1ncc(C(=O)c2cc3cc(OC(F)F)c(N4C(=O)NC(C)(C)C4=O)cc3[nH]2)c1N [Example 4-23-034, 3-[2-[5-amino-1-[6-(2,6-difluorophenoxy)-4-methylpyridin-3-yl]pyrazole-4-carbonyl]-5-(difluoromethoxy)-1H-indol-6-yl]-5,5-dimethylimidazolidine-2,4-dione] | 1.5 | 54 | 6.7
17 | Cc1cc(Oc2ccccc2F)ccc1-n1ncc(C(=O)c2cc3cc(OC(F)F)c(N4C(=O)NC(C)(C)C4=O)cc3[nH]2)c1N [Example 4-23-035, 3-[2-[5-amino-1-[4-(2-fluorophenoxy)-2-methylphenyl]pyrazole-4-carbonyl]-5-(difluoromethoxy)-1H-indol-6-yl]-5,5-dimethylimidazolidine-2,4-dione] | 0.63 | 30 | 7
18 | Cc1cc(Oc2c(F)cccc2F)ncc1-n1ncc(C(=O)c2cc3cc(OCC(F)F)c(N4C(=O)C(C)(C)NC4=S)cc3[nH]2)c1N [Example 4-23-036, 3-{2-{5-amino-1-[6-(2,6-difluorophenoxy)-4-methylpyridin-3-yl]pyrazole-4-carbonyl}-5-(2,2-difluoroethoxy)-1H-indol-6-yl}-5,5-dimethyl-2-sulfanylideneimidazolidin-4-one] | 1 | 31 | 6.4
19 | Cc1cc(Oc2ccccc2F)ccc1-n1ncc(C(=O)c2cc3cc(OCC(F)F)c(N4C(=O)C(C)(C)NC4=S)cc3[nH]2)c1N [Example 4-23-037, 3-[2-[5-amino-1-[4-(2-fluorophenoxy)-2-methylphenyl]pyrazole-4-carbonyl]-5-(2,2-difluoroethoxy)-1H-indol-6-yl]-5,5-dimethyl-2-sulfanylideneimidazolidin-4-one] | 0.76 | 12 | 6.7
20 | Cc1cc(Oc2c(F)cccc2F)ncc1-n1ncc(C(=O)c2cc3cc(OC(F)F)c(N4C(=O)C(C)(C)NC4=S)cc3[nH]2)c1N [Example 4-23-038, 3-[2-[5-amino-1-[6-(2,6-difluorophenoxy)-4-methylpyridin-3-yl]pyrazole-4-carbonyl]-5-(difluoromethoxy)-1H-indol-6-yl]-5,5-dimethyl-2-sulfanylideneimidazolidin-4-one] | 1.2 | 71 | 10
